Test results taken from article PMC5572576 (The Lancet. Oncology, 2017).
Like-named read-outs stand apart in the source and are kept apart here. Marks after values point to notes of the source that are not given here.

System: patients with R/R AML
[1] = 120 mg, possibly related to treatment

## CCc1nc(C(N)=O)c(Nc2ccc(N3CCC(N4CCN(C)CC4)CC3)c(OC)c2)nc1NC1CCOCC1 [gilteritinib]
20 mg
  Deaths, primary cause AML: 3 n
20 mg, one death considered possibly related to treatment
  Deaths, primary cause Intracranial hemorrhage: 2 ^c n
40 mg
  Deaths, primary cause AML: 5 n
  Deaths, primary cause Multi-organ failure: 1 n
80 mg
  Deaths, primary cause AML: 5 n
  Deaths, primary cause Bacteremia/staphylococcal bacteremia: 2 n
  Deaths, primary cause Diabetic ketoacidosis: 1 n
  Deaths, primary cause Respiratory failure: 1 n
80 mg/d
  Treatment-related Grade ≥3 elevated AST: 1 n
  Treatment-related Grade ≥3 elevated alanine aminotransferase: 1 n
80 mg, one death considered possibly related to treatment
  Deaths, primary cause Septic shock: 2 ^c n
80 mg, possibly related to treatment
  Deaths, primary cause Hemoptysis: 1 ^b n
120 mg
  Deaths, primary cause AML: 10 n
  Deaths, primary cause Colitis/neutropenic colitis: 1 n
  Deaths, primary cause Death NOS: 2 n
  Deaths, primary cause Hepatic infection: 1 n
  Deaths, primary cause Multi-organ failure: 1 n
  Deaths, primary cause Pneumonia: 2 n
  Deaths, primary cause Respiratory failure: 1 n
  Deaths, primary cause Sepsis/staphylococcal sepsis: 1 n
120 mg/d
  Treatment-related Grade ≥3 diarrhea: 1 n
  Treatment-related Grade ≥3 elevated alanine aminotransferase: 1 n
[1]
  Deaths, primary cause Neutropenia: 1 ^b n
  Deaths, primary cause Ventricular fibrillation: 1 ^b n
200 mg
  Deaths, primary cause AML: 13 n
  Deaths, primary cause Anemia: 1 n
  Deaths, primary cause Bronchopulmonary aspergillosis: 1 n
  Deaths, primary cause Cardiac arrest: 1 n
  Deaths, primary cause Cellulitis: 1 n
  Deaths, primary cause Cerebrovascular ischemia: 1 n
  Deaths, primary cause Colitis/neutropenic colitis: 1 n
  Deaths, primary cause Death NOS: 1 n
  Deaths, primary cause Febrile neutropenia: 1 n
  Deaths, primary cause Hypoxia: 1 n
  Deaths, primary cause Intracranial hemorrhage: 1 n
  Deaths, primary cause Loss of consciousness: 1 n
  Deaths, primary cause Lung infection: 1 n
  Deaths, primary cause Multi-organ failure: 5 n
  Deaths, primary cause Pneumonia: 2 n
  Deaths, primary cause Renal failure: 1 n
  Deaths, primary cause Respiratory failure: 5 n
  Deaths, primary cause Sepsis/staphylococcal sepsis: 8 n
  Deaths, primary cause Septic shock: 2 n
  Deaths, primary cause Sudden death: 1 n
  Deaths, primary cause Ventricular tachycardia: 1 n
200 mg/d
  Treatment-related Grade ≥3 diarrhea: 2 n
  Treatment-related Grade ≥3 elevated AST: 3 n
  Treatment-related Grade ≥3 elevated alanine aminotransferase: 4 n
200 mg, possibly related to treatment
  Deaths, primary cause Pulmonary embolism: 1 ^b n
300 mg
  Deaths, primary cause AML: 5 n
  Deaths, primary cause Renal failure: 1 n
  Deaths, primary cause Respiratory failure: 1 n
300 mg/d
  Treatment-related Grade ≥3 elevated AST: 1 n
450 mg
  Deaths, primary cause Cardiac arrest: 1 n
Table 2
  Urinary tract infection, Grade 3: 12 (5%) n (%)
Doses up to 200mg
  Probability of experiencing a DLT: < 20%
human, in vivo
  AE associated with dose reductions: diarrhea: 1%
  AE associated with dose reductions: fatigue: 1%
  AE that led to study discontinuation: progressive disease: 6%
  AE that led to study discontinuation: sepsis: 3%
  Acute renal failure, Grade 1: 7 (3%) n (%)
  Acute renal failure, Grade 2: 9 (4%) n (%)
  Acute renal failure, Grade 3: 8 (3%) n (%)
  Acute renal failure, Grade 4: 1 (0·4%) n (%)
  Anemia, Grade 1: 1 (0·4%) n (%)
  Anemia, Grade 2: 23 (9%) n (%)
  Anemia, Grade 3: 55 (22%) n (%)
  Anemia, Grade 4: 6 (2%) n (%)
  Anemia, Grade 5: 1 (0·4%) n (%)
  Arthralgia, Grade 1: 19 (8%) n (%)
  Arthralgia, Grade 2: 8 (3%) n (%)
  Asthenia, Grade 1: 14 (6%) n (%)
  Asthenia, Grade 2: 10 (4%) n (%)
  Asthenia, Grade 3: 6 (2%) n (%)
  Atrial fibrillation, Grade 3: 5 (2%) n (%)
  Back pain, Grade 3: 5 (2%) n (%)
  Bacteremia, Grade 3: 13 (5%) n (%)
  Bacteremia, Grade 4: 3 (1·2%) n (%)
  Bacteremia, Grade 5: 1 (0·4%) n (%)
  Cellulitis, Grade 3: 7 (3%) n (%)
  Cellulitis, Grade 5: 1 (0·4%) n (%)
  Clostridium difficile colitis, Grade 3: 5 (2%) n (%)
  Constipation, Grade 1: 40 (16%) n (%)
  Constipation, Grade 2: 17 (7%) n (%)
  Cough, Grade 1: 40 (16%) n (%)
  Cough, Grade 2: 14 (6%) n (%)
  Decreased appetite, Grade 1: 12 (5%) n (%)
  Decreased appetite, Grade 2: 18 (7%) n (%)
  Decreased neutrophil count, Grade 2: 5 (2%) n (%)
  Decreased neutrophil count, Grade 3: 7 (3%) n (%)
  Decreased neutrophil count, Grade 4: 14 (6%) n (%)
  Decreased platelet count, Grade 1: 1 (0·4%) n (%)
  Decreased platelet count, Grade 2: 3 (1·2%) n (%)
  Decreased platelet count, Grade 3: 7 (3%) n (%)
  Decreased platelet count, Grade 4: 30 (12%) n (%)
  Decreased white blood cell count, Grade 3: 6 (2%) n (%)
  Decreased white blood cell count, Grade 4: 9 (4%) n (%)
  Diarrhea, Grade 1: 47 (19%) n (%)
  Diarrhea, Grade 2: 32 (13%) n (%)
  Diarrhea, Grade 3: 13 (5%) n (%)
  Dizziness, Grade 1: 36 (14%) n (%)
  Dizziness, Grade 2: 11 (4%) n (%)
  Drug-related TEAEs leading to discontinuation: 10%
  Dysgeusia, Grade 1: 23 (9%) n (%)
  Dysgeusia, Grade 2: 4 (1·6%) n (%)
  Dyspnea, Grade 1: 29 (12%) n (%)
  Dyspnea, Grade 2: 18 (7%) n (%)
  Dyspnea, Grade 3: 11 (4%) n (%)
  Dyspnea, Grade 4: 1 (0.4%) n (%)
  Edema peripheral, Grade 1: 43 (17%) n (%)
  Edema peripheral, Grade 2: 21 (8%) n (%)
  Edema peripheral, Grade 3: 3 (1.2%) n (%)
  Elevated ALT, Grade 1: 25 (10%) n (%)
  Elevated ALT, Grade 2: 9 (4%) n (%)
  Elevated ALT, Grade 3: 13 (5%) n (%)
  Elevated AST, Grade 1: 33 (13%) n (%)
  Elevated AST, Grade 2: 18 (7%) n (%)
  Elevated AST, Grade 3: 14 (6%) n (%)
  Elevated AST, Grade 4: 1 (0·4%) n (%)
  Elevated blood alkaline phosphatase, Grade 1: 28 (11%) n (%)
  Elevated blood alkaline phosphatase, Grade 2: 5 (2%) n (%)
  Elevated blood bilirubin, Grade 3: 6 (2%) n (%)
  Elevated blood bilirubin, Grade 4: 1 (0·4%) n (%)
  Elevated blood creatinine, Grade 1: 23 (9%) n (%)
  Elevated blood creatinine, Grade 2: 12 (5%) n (%)
  Elevated blood phosphocreatine kinase, Grade 1: 7 (3%) n (%)
  Elevated blood phosphocreatine kinase, Grade 2: 7 (3%) n (%)
  Elevated blood phosphocreatine kinase, Grade 3: 7 (3%) n (%)
